Assay results as given in PubChem BioAssay AID179 (DTP/NCI, 2004).
Calls of active or inactive are those of the source.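 The calls were made as follows: active = compounds giving half or more protection of infected cells from virus-caused growth loss, again on retest; inactive = the rest.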

Tested on: CEM cells HIV-1 protection, formazan growth assay
Assay: NCI AIDS Antiviral Assay
Settings: for IC50: measured here: growth of uninfected CEM cells
In short: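 Category rules: moderately active means at least 50% protection on retest, and confirmed active means 100% protection reproducibly. The underlying data came from a formazan growth assay in HIV-1-infected CEM cells.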

## Nn1c(-c2ccccc2Nc2ccccc2-c2n[nH]c(=S)n2N)n[nH]c1=S
  EC50: > 50.1 µM
  IC50: 6.17 µM

## CCOc1ncn(-c2ccc(NC(=S)Nc3ncccn3)cc2)n1
  EC50: > 200 µM
  IC50: 95.5 µM

## c1ccc2c(c1)Cc1cn3ncnc3nc1-2
  EC50: > 200 µM
  IC50: > 200 µM

## O=C1C(=Cc2ccco2)C(=O)C2CCCCC12 (configuration not stated)
  EC50: > 200 µM
  IC50: 166 µM

## O=C(NNC(=S)NCc1ccccc1)C12CC3CC(CC(C3)C1)C2
  EC50: > 200 µM
  IC50: 25.1 µM

## O=[N+]([O-])c1ccc(Nc2nnc(-c3ccc(Cl)cc3Cl)s2)cc1
  outcome: inactive

## c1ccc(OCc2nn3c(-c4ccccc4)nnc3s2)cc1
  EC50: > 200 µM
  IC50: > 200 µM

## CC(C)(CN1CCCCC1)C(/C=C/c1ccc(Cl)c(Cl)c1)=N\NC(=O)N/N=C(/C=C/c1ccc(Cl)c(Cl)c1)C(C)(C)CN1CCCCC1
  EC50: > 200 µM
  IC50: 2.24 µM

## NC(=O)N/N=C1/CC2CCCCC2c2ccccc21 (configuration not stated)
  EC50: > 200 µM
  IC50: 34.7 µM

## O=C(c1ccc(OC(=O)c2ccccc2O)cc1)c1ccc(OC(=O)c2ccccc2O)cc1
  outcome: inactive

## CC1(N2CCOCC2)CC2C(=[N+]1[O-])CCC/C2=N/O (configuration not stated)
  EC50: > 200 µM
  IC50: > 200 µM

## Cc1nc(Nc2nnc(-c3cc([N+](=O)[O-])cc([N+](=O)[O-])c3C)o2)sc1C(=O)CC(=O)Cc1nc2ccc(Cl)cc2[nH]c1=O
  EC50: > 57.5 µM
  IC50: > 57.5 µM

## C[N+](C)([O-])C12CC3CC(CC(C3)C1)C2
  EC50: > 200 µM
  IC50: > 200 µM

## N#Cc1ccc(Oc2nc3ccccc3nc2C(=O)O)cc1
  EC50: > 200 µM
  IC50: > 200 µM

## CC(=O)Nc1ccc(C(=O)NN2C(=O)C(Cl)C2/C=C/c2ccccc2)cc1 (configuration not stated)
  EC50: 135 µM
  IC50: 166 µM

## Nn1ccc(=O)c2c1-c1ccccc1C(c1ccccc1)c1ccccc1-2 (configuration not stated)
  EC50: > 200 µM
  IC50: 24 µM

## Cc1cc(=O)c2c3c(ccc2[nH]1)Oc1ccccc1O3
  EC50: > 7.59 µM
  IC50: > 7.59 µM

## C/C=C1\CNC2Cc3c([nH]c4ccccc34)C(=O)CC1C2C(=O)OC (configuration not stated)
  outcome: inactive

## Clc1ccc(C2=C(c3ccccc3)C(c3ccc(Cl)cc3)N3C(=N[C@H]4CCCC[C@@H]43)N2)cc1 (some centres not stated)
  EC50: > 200 µM
  IC50: 20.9 µM

## CC(=O)OCC1OC(n2c3c(cc(C#N)c2=S)CCCCC3)C(OC(C)=O)C(OC(C)=O)C1OC(C)=O (configuration not stated)
  EC50: > 200 µM
  IC50: > 200 µM

## CN1CCN(CCSC2Cc3cc(Cl)ccc3Sc3ccccc32)CC1 (configuration not stated)
  EC50: > 64.6 µM
  IC50: 7.76 µM

## Oc1ccc(S)cc1CNC1CCCCC1
  EC50: > 200 µM
  IC50: 13.2 µM

## Cn1cc(N)cc1C(=O)Nc1cc(C(=O)Nc2cc(S(=O)(=O)O)c3cc(S(=O)(=O)O)cc(S(=O)(=O)O)c3c2)n(C)c1
  EC50: 53.7 µM
  IC50: 339 µM

## CCOC(=O)/C(Cc1cc[n+]([O-])cc1)=N/O
  outcome: inactive

## C=[N+]([O-])CCC1(O)C(CO[Si](C)(C)C(C)(C)C)OC(n2ccc(=O)[nH]c2=O)C1O[Si](C)(C)C(C)(C)C (configuration not stated)
  EC50: > 200 µM
  IC50: 12 µM

## CCOC(=O)NC(NC1=NCCS1)(C(=O)OCC)C(F)(F)F (configuration not stated)
  EC50: > 200 µM
  IC50: 191 µM

## CC(C)OP(=O)(OC(C)C)C1=NN(c2ccc([N+](=O)[O-])cc2)C(N)(N)S1
  EC50: > 617 µM
  IC50: 135 µM

## COc1c2cc(C(C)(C)C)cc1CSCc1cc(C(C)(C)C)cc(c1OC)CCCCC2
  EC50: > 200 µM
  IC50: > 200 µM

## C=C1C=CC2(Br)OC3CC(C)(Cl)C(Br)CC13C2(C)C (configuration not stated)
  outcome: inactive

## CCOC(=O)CCC(NC(=O)OCc1ccccc1)C(=O)NNC(=O)OC(C)(C)C (configuration not stated)
  EC50: > 200 µM
  IC50: > 200 µM

## CCOP(=O)(CC(C)P(=O)(OCC)OCC)OCC.C[CH2][Sn]([Cl])([Cl])[CH2]C (configuration not stated)
  EC50: > 447 µM
  IC50: 1.7 µM

## O=c1[nH]c2nc(SCc3ccccc3)n(Cc3ccccc3)c2c(=O)n1OS(=O)(=O)c1ccccc1
  EC50: > 200 µM
  IC50: 75.9 µM

## Cc1c2ccccc2nc(CSCCC(C)C)[n+]1[O-]
  EC50: 28.8 µM
  IC50: 135 µM

## COc1cc2c(cc1O)-c1oncc1CCC2
  EC50: > 77.6 µM
  IC50: > 77.6 µM

## Cc1cc(O)c(C=O)c2c1C(=O)Oc1c(COCO/C=C/C(=O)O)c(O)c(C(=O)O)c(C)c1O2
  EC50: 52.5 µM
  IC50: 61.7 µM

## N/C(=N/N=C/c1cc(Cl)ccc1O)N/N=C\c1cc(Cl)ccc1O
  EC50: > 2 µM
  IC50: 1 µM

## O=C1OC2(O)c3ccccc3C(=O)N2N2CCCC12 (configuration not stated)
  EC50: > 692 µM
  IC50: > 692 µM

## c1cc(C[S+]2CCCC2)ccc1C[S+]1CCCC1
  EC50: > 100 µM
  IC50: > 100 µM

## CC1CCC(C(C)C)C(O[C@@H]2OC(=O)C[C@@H]2Sc2ccccc2)C1 (some centres not stated)
  outcome: inactive

## Nc1cnc(N2CCN(c3ncc(N)cc3N)CC2)c(N)c1
  EC50: > 95.5 µM
  IC50: 77.6 µM

## CCc1ccccc1NC(=O)C1=C(C)NC(C)=C(C(=O)Nc2ccccc2CC)C1c1cccc([N+](=O)[O-])c1
  EC50: > 19.1 µM
  IC50: > 19.1 µM

## NNC(=O)CC(=O)Nc1cccc(Cl)c1
  EC50: > 200 µM
  IC50: 120 µM

## Cc1cc(Cl)c(O)c(C2(C(O)c3ccc(O)cc3)NC(=S)NC2=O)c1 (configuration not stated)
  EC50: > 200 µM
  IC50: 107 µM

## Cc1ccc(-n2cc(-c3ccc(Cl)cc3)c3c2N=CN2NC(c4ccco4)=NC32)cc1 (configuration not stated)
  EC50: > 100 µM
  IC50: 74.1 µM

## Cc1ccc2ccccc2c1CC1S(=O)(=O)OCCOS1(=O)=O
  EC50: > 200 µM
  IC50: 115 µM

## S=C1N(c2ccc(Br)cc2)C2=Nc3ccccc3SC(=C2N=Nc2ccccc2)N1c1ccc(Cl)cc1
  EC50: > 37.2 µM
  IC50: 17 µM

## C#CCN1C(=O)CN2C(Cl)(Cl)C2(c2ccccc2)c2cc(Cl)ccc21 (configuration not stated)
  EC50: > 200 µM
  IC50: 22.9 µM

## C=Cc1c(C#N)nc(C)c(C)c1-c1ccc(OC)c(OC)c1OCc1ccccc1
  EC50: > 200 µM
  IC50: 14.1 µM

## CC(NCCNC(C)c1cccnc1)c1cccnc1 (configuration not stated)
  EC50: > 200 µM
  IC50: > 200 µM

## CC(=O)/C(=C\n1c(=S)[nH]c2ccc([N+](=O)[O-])cc21)C(=O)Nc1ccccc1C
  EC50: > 200 µM
  IC50: 89.1 µM

## NC(CSS(=O)(=O)CC(N)C(=O)O)C(=O)O (configuration not stated)
  outcome: inactive
  IC50: 63.1 µM

## CC1(C)CC(c2c[nH]c3ccccc23)=CC2=Nc3ccccc3C21O (configuration not stated)
  outcome: inactive

## O=S(Cc1ccccc1)c1ccccc1Cn1cccc1 (configuration not stated)
  EC50: > 200 µM
  IC50: 158 µM

## COc1cc(C(C)(C)C)c(OC(=O)/C=C/C(=O)O/C=C/[N+](=O)[O-])c(C(C)(C)C)c1
  EC50: > 200 µM
  IC50: 31.6 µM

## O=c1c2nn3c(=O)n(-c4ccc(Cl)cc4)c(=O)c3nn2c(=O)n1-c1ccc(Cl)cc1
  EC50: > 200 µM
  IC50: > 200 µM

## CCOC(=O)C1C(=O)CN2CCc3c([nH]c4ccccc34)C12C(=O)OCC (configuration not stated)
  EC50: > 257 µM
  IC50: 162 µM

## FC(F)(F)c1nc(-c2ccccc2)oc1Sc1oc(-c2ccccc2)nc1C(F)(F)F
  outcome: inactive

## OCC(CO)c1cnnc2ccccc12
  EC50: > 525 µM
  IC50: > 525 µM

## O=S1(=O)/C(=C\C2CCCCC2)c2c1c(-c1ccccc1)c1ccccc1c2-c1ccccc1
  EC50: > 49 µM
  IC50: > 49 µM

## O=C1CC(C(OCc2ccccc2)C(OCc2ccccc2)C(COCc2ccccc2)OCc2ccccc2)CC(=O)N1 (configuration not stated)
  EC50: > 200 µM
  IC50: > 200 µM

## O=C1NCCCCC1CC/C=C/c1ccccc1 (configuration not stated)
  EC50: > 148 µM
  IC50: 95.5 µM

## COC(=O)C1ON(c2ccccc2)C2c3ccccc3-c3ccccc3C12 (configuration not stated)
  EC50: > 5.62 µM
  IC50: > 5.62 µM

## Cc1nc2cncnc2n(CCN2CCOCC2)c1=O
  EC50: > 200 µM
  IC50: 46.8 µM

## Cc1cc(C)c(C(=O)c2no[n+]([O-])c2C(=O)c2c(C)cc(C)c(Br)c2C)c(C)c1Br
  EC50: > 1.95 µM
  IC50: > 1.95 µM

## CCCCCCCCC1=C(OC)C(=O)c2c(C)cc(Cl)nc2C1=O
  outcome: inactive

## O=S(=O)([O-])c1ccc(C=Nc2ccccc2)c([O-])c1.O=S(=O)([O-])c1ccc(C=Nc2ccccc2)c([O-])c1.[Co+2]
  EC50: > 407 µM
  IC50: 95.5 µM

## COc1cc(/C=C(\C#N)c2ccc([N+](=O)[O-])cc2)ccc1O
  EC50: > 151 µM
  IC50: 27.5 µM

## COc1ccc(N2C(=O)C3c4[nH]c5ccccc5c4C4CCC(C(C)(C)C)CC4C3C2=O)c(C)c1 (configuration not stated)
  EC50: > 200 µM
  IC50: > 200 µM

## Cc1nc(-n2nc(-c3ccccc3)cc2-c2ccccc2)sc1C(=O)/C=C/c1ccccc1
  EC50: > 16.2 µM
  IC50: 8.32 µM

## CC12CCCC(C(=O)O)(C1)[C@H](C(C)(C)C(=O)O)CC2 (some centres not stated)
  EC50: > 200 µM
  IC50: > 200 µM

## CN(C)Cc1cc(CN(C)C)cc(CN(C)C)c1
  EC50: > 200 µM
  IC50: > 200 µM

## Cc1cc(S(=O)(=O)N2CCNC2=O)c(S)cc1Cl
  EC50: 89.1 µM
  IC50: 251 µM

## Cn1cc(NC(=O)c2cc(NC(=O)CN=C(N)N)cn2C)cc1C(=O)NCCC(=N)N
  EC50: > 200 µM
  IC50: > 200 µM

## CCCCCCCCOP(=O)(O)OP(=O)(O)OCC1OC(n2ccc(N)nc2=O)C(O)C1O (configuration not stated)
  EC50: > 200 µM
  IC50: > 200 µM

## c1ccc(C2CN3CCSC3=N2)cc1 (configuration not stated)
  EC50: > 200 µM
  IC50: > 200 µM

## CC1=CCC[C@@H]2C1(C)CCC(C)[C@@]2(C)CC1=CC(=O)C=CC1=O (some centres not stated)
  EC50: > 50.1 µM
  IC50: 11.5 µM

## CC(=O)c1cccc(NC(=O)/C(=N\NC(=S)NN)C2C(=O)Nc3ccccc3S2=O)c1 (configuration not stated)
  EC50: > 282 µM
  IC50: > 282 µM

## CN(C)CCCn1c(-c2cc(C(C)(C)C)c(O)c(C(C)(C)C)c2)csc1=Nc1ccccc1
  EC50: > 200 µM
  IC50: 3.55 µM

## CCCCCCN(CCCCCC)C(=O)C1=C(C)NC(C)=C(C(=O)N(CCCCCC)CCCCCC)C1
  EC50: > 200 µM
  IC50: 95.5 µM

## CCCCCC=C(c1cc(I)c(OC)c(C(=O)OC)c1)c1cc(I)c(OC)c(C(=O)OC)c1
  EC50: > 200 µM
  IC50: 166 µM

## COc1ccc(C2CC(=O)c3ccccc3O2)cc1OC (configuration not stated)
  EC50: > 200 µM
  IC50: 40.7 µM

## CCOC(=O)c1c(C(F)(F)F)c2cc(C(=O)C(F)(F)F)c3ccccc3c2n1C
  EC50: > 42.7 µM
  IC50: > 42.7 µM

## CCCCNCCCNCCCNC(=O)c1csc(-c2csc(CCNC(=O)C(NC(=O)C(C)C(O)C(C)NC(=O)C(NC(=O)c3nc(C(CC(N)=O)NCC(N)C(N)=O)nc(N)c3C)C(OC3OC(CO)C(O)C(O)C3OC3OC(CO)C(O)C(OC(N)=O)C3O)c3cnc[nH]3)C(C)O)n2)n1 (configuration not stated)
  outcome: inactive

## C=C1C2Oc3ccccc3C1N(c1ccccc1)O2 (configuration not stated)
  outcome: inactive
